Values of other authors as cited in patent US20040097484A1 (priority 2002, published 2004).

Conditions: in vivo

COc1ccc2c3c1O[C@H]1C[C@@H](O)C=C[C@@]31CCN(C)C2 [galantamine, 4a, 5,9, 10, 11, 12-hexahydro-3-methoxy-11-methyl-6H-benzofuro [3a, 3,2-e][2] benzazepin-6-ol]
effective plasma concentration duration (sufficient elimination half-life): at least 4 hours
